Earlier results in PMC9851200, “Multiparameter phenotypic screening for endogenous TFEB and TFE3 translocation identifies novel chemical series modulating lysosome function” (Autophagy, 2022).

Experiments:
Design in all cases: method as in original PKIS2 published data
[1] = biological target: kinases (KINOMEscan panel) (Homo sapiens, UniProt P49761); details: CLK3; Published KINOMEscan; ref original PKIS2 published data; cited from earlier work
[2] = biological target: T1, kinases (KINOMEscan panel) (Homo sapiens, UniProt P29320); details: kinase EPHA3; Published KINOMEscan; ref original PKIS2 published data; cited from earlier work
T1 sequence (P29320 21-983): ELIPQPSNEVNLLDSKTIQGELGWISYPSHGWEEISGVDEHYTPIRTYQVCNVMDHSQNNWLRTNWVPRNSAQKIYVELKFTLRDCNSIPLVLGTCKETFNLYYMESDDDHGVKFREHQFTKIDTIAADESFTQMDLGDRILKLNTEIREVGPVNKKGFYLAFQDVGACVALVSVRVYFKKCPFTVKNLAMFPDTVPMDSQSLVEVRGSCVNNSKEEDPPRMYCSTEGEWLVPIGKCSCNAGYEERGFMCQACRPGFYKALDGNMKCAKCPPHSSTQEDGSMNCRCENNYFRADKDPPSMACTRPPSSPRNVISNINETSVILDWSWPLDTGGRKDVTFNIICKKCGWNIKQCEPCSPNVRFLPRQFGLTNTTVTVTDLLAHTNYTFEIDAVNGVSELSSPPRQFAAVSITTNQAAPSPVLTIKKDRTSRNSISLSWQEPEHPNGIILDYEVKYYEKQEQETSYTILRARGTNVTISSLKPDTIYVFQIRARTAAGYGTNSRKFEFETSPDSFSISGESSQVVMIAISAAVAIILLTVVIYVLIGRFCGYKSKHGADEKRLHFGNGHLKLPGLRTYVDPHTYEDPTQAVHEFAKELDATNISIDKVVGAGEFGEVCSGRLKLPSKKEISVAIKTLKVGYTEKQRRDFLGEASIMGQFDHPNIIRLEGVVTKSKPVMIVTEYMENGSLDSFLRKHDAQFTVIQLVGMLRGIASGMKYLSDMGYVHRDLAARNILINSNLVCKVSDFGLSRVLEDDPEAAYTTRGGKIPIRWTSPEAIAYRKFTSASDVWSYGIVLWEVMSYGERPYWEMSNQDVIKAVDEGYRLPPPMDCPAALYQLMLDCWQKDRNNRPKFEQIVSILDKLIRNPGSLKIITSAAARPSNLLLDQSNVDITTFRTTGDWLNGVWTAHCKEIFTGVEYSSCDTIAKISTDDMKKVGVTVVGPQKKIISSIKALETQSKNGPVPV

[3] = biological target: kinases (KINOMEscan panel) (Homo sapiens, UniProt O43353); details: RIPK2; Published KINOMEscan; ref original PKIS2 published data; cited from earlier work
Sequence of kinases (KINOMEscan panel) (Homo sapiens, UniProt O43353) (O43353 whole entry): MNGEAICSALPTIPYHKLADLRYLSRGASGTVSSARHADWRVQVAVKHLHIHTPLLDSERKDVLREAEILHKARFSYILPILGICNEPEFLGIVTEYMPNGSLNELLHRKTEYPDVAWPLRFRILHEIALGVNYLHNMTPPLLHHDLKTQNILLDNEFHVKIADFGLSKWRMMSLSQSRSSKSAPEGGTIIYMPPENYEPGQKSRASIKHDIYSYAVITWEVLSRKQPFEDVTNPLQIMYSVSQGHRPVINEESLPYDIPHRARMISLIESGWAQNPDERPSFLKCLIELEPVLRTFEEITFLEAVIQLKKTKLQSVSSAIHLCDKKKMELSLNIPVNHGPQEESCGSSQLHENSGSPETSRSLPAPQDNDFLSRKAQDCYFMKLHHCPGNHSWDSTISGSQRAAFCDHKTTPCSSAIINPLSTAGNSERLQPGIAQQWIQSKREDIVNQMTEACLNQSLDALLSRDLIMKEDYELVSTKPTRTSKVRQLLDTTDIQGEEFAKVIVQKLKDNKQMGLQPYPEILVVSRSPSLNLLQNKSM

[4] = biological target: kinases (KINOMEscan panel) (Homo sapiens, UniProt P06241); details: kinase FYN; Published KINOMEscan; ref original PKIS2 published data; cited from earlier work
Sequence of kinases (KINOMEscan panel) (Homo sapiens, UniProt P06241) (P06241 whole entry): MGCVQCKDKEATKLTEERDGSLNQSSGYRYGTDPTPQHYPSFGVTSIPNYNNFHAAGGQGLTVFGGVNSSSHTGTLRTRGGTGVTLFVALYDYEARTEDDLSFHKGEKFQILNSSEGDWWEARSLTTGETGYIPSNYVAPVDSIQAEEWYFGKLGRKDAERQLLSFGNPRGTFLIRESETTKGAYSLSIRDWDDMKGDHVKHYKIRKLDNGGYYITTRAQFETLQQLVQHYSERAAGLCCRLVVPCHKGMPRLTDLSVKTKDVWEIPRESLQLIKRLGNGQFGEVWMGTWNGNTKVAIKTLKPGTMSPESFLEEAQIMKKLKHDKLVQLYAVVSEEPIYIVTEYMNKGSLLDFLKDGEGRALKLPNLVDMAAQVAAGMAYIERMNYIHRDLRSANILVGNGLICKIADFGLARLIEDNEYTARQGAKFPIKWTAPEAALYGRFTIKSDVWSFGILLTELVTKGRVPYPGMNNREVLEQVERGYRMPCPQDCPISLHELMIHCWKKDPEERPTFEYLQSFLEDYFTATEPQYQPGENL

[5] = biological target: kinases (KINOMEscan panel) (Homo sapiens, UniProt P30291); details: WEE1; Published KINOMEscan; ref original PKIS2 published data; cited from earlier work
Sequence of kinases (KINOMEscan panel) (Homo sapiens, UniProt P30291) (P30291 whole entry): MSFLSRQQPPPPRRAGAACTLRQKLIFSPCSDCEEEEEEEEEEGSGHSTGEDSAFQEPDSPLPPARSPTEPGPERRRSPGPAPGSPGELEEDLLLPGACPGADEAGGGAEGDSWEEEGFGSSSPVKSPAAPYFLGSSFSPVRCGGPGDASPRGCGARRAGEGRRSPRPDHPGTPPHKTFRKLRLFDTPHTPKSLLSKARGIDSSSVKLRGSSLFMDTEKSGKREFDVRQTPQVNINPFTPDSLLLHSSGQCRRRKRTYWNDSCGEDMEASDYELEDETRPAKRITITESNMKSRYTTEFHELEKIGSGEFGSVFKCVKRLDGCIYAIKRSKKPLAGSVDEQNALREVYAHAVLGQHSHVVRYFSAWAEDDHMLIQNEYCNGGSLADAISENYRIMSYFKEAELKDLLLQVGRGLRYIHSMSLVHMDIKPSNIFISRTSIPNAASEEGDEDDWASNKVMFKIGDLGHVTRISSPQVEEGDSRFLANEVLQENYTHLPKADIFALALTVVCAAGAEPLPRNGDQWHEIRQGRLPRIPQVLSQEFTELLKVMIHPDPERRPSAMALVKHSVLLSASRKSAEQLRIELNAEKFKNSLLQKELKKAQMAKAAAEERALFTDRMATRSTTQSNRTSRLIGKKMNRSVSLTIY

[6] = biological target: T2, kinases (KINOMEscan panel) (Homo sapiens, UniProt P51813); details: BMX; Published KINOMEscan; ref original PKIS2 published data; cited from earlier work
T2 sequence (P51813 1-675): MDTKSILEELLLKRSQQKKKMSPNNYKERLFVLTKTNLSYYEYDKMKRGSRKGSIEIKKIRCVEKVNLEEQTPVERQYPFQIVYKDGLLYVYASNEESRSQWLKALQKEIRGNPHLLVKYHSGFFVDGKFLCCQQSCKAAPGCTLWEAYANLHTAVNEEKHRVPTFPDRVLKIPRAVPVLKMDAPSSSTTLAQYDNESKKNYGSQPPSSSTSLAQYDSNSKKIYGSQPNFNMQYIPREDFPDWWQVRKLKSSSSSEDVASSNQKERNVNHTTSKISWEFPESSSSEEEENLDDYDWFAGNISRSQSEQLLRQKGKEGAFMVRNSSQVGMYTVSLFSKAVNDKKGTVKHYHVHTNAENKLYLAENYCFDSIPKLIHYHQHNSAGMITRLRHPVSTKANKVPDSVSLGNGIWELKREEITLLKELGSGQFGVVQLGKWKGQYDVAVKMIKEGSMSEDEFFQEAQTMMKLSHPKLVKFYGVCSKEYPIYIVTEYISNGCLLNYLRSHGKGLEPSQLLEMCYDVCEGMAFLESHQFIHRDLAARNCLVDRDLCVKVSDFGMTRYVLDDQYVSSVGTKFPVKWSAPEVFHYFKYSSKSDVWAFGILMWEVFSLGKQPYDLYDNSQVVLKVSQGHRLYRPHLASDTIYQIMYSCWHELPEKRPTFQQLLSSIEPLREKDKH

[7] = biological target: kinases (KINOMEscan panel) (Homo sapiens, UniProt P49336); details: CDK8; Published KINOMEscan; ref original PKIS2 published data; cited from earlier work
Sequence of kinases (KINOMEscan panel) (Homo sapiens, UniProt P49336) (P49336 whole entry): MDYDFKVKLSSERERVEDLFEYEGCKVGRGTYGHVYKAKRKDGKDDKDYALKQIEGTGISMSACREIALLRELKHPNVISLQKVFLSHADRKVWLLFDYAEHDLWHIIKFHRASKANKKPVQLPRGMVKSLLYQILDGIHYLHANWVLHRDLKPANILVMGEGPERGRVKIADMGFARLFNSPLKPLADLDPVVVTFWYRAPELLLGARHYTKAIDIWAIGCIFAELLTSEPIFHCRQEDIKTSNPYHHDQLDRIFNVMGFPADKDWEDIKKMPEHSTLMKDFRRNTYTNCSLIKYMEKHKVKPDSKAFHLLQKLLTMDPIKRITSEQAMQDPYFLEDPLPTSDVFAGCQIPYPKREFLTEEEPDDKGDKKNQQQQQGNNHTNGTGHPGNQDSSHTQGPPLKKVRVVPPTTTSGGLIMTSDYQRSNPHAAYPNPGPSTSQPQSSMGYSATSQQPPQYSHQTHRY

[8] = biological target: kinases (KINOMEscan panel) (Homo sapiens, UniProt O95819); details: MAP4K4; Published KINOMEscan; ref original PKIS2 published data; cited from earlier work
Sequence of kinases (KINOMEscan panel) (Homo sapiens, UniProt O95819) (O95819 whole entry): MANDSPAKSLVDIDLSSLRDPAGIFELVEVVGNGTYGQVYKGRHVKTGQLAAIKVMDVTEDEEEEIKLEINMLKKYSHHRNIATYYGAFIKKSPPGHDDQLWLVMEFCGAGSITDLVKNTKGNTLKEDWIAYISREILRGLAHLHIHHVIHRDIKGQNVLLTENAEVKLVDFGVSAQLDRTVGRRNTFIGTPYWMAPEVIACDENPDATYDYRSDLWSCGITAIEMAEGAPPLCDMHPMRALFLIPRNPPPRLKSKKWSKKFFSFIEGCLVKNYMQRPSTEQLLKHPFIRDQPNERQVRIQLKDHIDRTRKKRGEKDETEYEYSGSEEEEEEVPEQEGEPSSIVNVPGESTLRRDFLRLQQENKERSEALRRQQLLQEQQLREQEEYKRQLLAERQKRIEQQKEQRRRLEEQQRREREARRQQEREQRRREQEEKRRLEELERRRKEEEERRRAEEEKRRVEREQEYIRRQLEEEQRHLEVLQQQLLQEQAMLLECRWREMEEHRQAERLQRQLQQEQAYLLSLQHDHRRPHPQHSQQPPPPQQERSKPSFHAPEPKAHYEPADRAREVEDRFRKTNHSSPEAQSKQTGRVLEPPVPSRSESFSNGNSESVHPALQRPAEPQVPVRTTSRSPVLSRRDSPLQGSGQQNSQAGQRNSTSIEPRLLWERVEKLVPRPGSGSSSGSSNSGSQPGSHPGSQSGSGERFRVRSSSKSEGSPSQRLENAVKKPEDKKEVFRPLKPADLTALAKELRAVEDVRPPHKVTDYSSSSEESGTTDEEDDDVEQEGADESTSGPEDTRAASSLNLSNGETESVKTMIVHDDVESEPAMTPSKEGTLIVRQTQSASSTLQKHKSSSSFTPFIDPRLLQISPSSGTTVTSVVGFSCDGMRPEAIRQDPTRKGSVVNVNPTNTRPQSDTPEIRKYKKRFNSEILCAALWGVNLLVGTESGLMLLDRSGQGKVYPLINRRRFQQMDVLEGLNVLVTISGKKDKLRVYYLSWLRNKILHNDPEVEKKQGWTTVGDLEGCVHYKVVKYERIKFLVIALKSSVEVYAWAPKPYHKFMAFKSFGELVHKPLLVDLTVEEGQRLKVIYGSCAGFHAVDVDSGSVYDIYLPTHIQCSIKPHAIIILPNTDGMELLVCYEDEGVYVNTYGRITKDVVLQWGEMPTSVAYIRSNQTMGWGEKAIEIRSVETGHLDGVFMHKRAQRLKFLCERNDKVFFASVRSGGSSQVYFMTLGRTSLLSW

[9] = biological target: kinases (KINOMEscan panel) (Homo sapiens, UniProt Q9H4B4); details: kinase PLK3; Published KINOMEscan; ref original PKIS2 published data; cited from earlier work
Sequence of kinases (KINOMEscan panel) (Homo sapiens, UniProt Q9H4B4) (Q9H4B4 whole entry): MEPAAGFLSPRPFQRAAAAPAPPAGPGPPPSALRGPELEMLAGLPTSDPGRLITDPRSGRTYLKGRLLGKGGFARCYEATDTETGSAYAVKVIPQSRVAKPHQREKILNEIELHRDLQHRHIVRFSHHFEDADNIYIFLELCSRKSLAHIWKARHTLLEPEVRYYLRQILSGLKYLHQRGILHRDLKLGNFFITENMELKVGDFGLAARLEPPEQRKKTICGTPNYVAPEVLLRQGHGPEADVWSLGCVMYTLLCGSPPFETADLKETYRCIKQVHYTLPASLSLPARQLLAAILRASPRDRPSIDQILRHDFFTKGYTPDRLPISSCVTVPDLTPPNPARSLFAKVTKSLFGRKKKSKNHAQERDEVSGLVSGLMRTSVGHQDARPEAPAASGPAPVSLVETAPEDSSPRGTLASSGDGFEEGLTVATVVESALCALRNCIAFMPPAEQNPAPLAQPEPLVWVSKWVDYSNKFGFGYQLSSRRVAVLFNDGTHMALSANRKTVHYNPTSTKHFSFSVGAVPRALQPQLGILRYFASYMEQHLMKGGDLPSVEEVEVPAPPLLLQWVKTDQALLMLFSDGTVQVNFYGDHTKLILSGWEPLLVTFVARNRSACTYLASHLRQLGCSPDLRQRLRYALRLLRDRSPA

[10] = biological target: T3, kinases (KINOMEscan panel) (Homo sapiens, UniProt Q9UQB9); details: AURKC; Published KINOMEscan; ref original PKIS2 published data; cited from earlier work
T3 sequence (Q9UQB9 1-309): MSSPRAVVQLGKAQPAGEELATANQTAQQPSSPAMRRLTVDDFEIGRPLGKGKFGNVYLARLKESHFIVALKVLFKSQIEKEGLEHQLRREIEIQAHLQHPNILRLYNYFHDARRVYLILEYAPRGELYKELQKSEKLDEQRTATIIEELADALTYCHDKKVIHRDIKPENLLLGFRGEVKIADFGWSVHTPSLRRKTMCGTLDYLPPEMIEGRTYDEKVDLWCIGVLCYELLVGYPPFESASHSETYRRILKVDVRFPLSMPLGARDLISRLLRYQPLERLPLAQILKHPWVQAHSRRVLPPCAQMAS

Sequence of kinases (KINOMEscan panel) (Homo sapiens, UniProt P49761) (P49761 whole entry): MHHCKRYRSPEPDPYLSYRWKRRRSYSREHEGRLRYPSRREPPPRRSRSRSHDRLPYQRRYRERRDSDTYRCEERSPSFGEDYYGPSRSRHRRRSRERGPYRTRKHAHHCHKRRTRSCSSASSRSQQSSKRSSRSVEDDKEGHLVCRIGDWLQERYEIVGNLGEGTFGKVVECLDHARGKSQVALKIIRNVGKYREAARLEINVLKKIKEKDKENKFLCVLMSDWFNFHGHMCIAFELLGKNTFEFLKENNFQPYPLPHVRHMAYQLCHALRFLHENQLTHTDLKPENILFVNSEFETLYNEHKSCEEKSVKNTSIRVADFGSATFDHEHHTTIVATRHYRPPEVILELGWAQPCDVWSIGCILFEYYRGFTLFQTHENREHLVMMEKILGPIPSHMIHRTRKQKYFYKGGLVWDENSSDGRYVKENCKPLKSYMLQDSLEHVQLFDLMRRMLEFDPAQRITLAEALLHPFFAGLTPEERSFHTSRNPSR

**Q.** What does the source list for `Cc1cccc(-c2nc(Nc3ccncc3)c3ccccc3n2)n1` [NK215]?
**A.** KINOMEscan CLK3 [1]: 31; KINOMEscan EPHA3 [2]: 0; KINOMEscan RIPK2 [3]: 71; KINOMEscan FYN [4]: 13; KINOMEscan WEE1 [5]: 23; KINOMEscan BMX [6]: 6; KINOMEscan CDK8 [7]: 65; KINOMEscan MAP4K4 [8]: 0; KINOMEscan PLK3 [9]: 0; KINOMEscan AURKC [10]: 0
